{"source": "patent US6368788B1", "about": "(priority 1987, dated 2002)", "key": {"[1]": {"experiment": "Bronchial asthma (Protocol A)", "type": "in vivo, human", "method": "Sixty five patients (65) with bronchial asthma, including both adults and children, were entered into the trial: 37 patients were treated with L-Glu-L-Trp and 28 (controls) received conventional therapy alone. L-Glu-L-Trp was administered im in a single daily dose of 1 μg/kg on each of 5-10 consecutive days. […] In certain patients it was possible to eliminate the use of prescribed steroids."}, "[2]": {"test_system": "E-rosette forming (CD2^+) T-lymphocytes", "experiment": "In vitro incubation of the children's lymphocytes: E-rosette forming (CD2+) T-lymphocytes", "type": "cell-based, human"}, "[3]": {"test_system": "Pneumocystis carinii", "experiment": "Pneumocystis carinii lung infection in cortisone-immunocompromised rats", "type": "in vivo", "conditions": "for Lung (bacteria): mean ± S.E., magnification 400X; for Lymphocytes / Neutrophils / Total Leukocytes / Lymphocytes (% Normal) / Neutrophils (% normal) / Total Leukocytes (% normal): peripheral blood at 79 days; for Lymphocytes (% Normal) / Neutrophils (% normal) / Total Leukocytes (% normal): % of day 0", "method": "Corticosteroids were administered to rats to induce an immunocompromised state in which an opportunistic infection with Pneumocystis carinii could be established. The immunocompromised state was induced by administering cortisone acetate im twice weekly at a dose of 25 mg/kg over the entire 12 week course of the study. Pneumocystis carinii lung infection was initiated by intranasal instillation on day 0. Prophylactic tetracycline was administered po in the drinking water ([…]), and peripheral blood differential counts were monitored over the next 12 weeks. In control (untreated) Pneumocystis-infected animals, differential counts, body weight, and lymphocyte counts began dropping at about 30-39 days and lung infection was evident histologically by about day 60-69. At day 80, tetracycline treatment was discontinued in all groups. By day 80 in this animal model, mean body weight of the animals had dropped by approximately 30% from the values recorded on day 0. Groups were comprised of 15 rats each.\nL-Glu-L-Trp treatments were administered according to the following protocol: 10 consecutive daily im injections of 10 μg/kg or 100 μg/kg of L-Glu-L-Trp on days 0 through 9, 30 through 39, and 60 through 69 of the study. Differential cell counts in peripheral blood (TABLE 80) and lung histology (i.e., with enumeration of the number of P. carinii/10 microscopic fields—at 400× magnification) were used to monitor the course of the opportunistic infection."}, "[4]": {"experiment": "Post-term women (Protocol D)", "design": "species or system human", "conditions": "in vivo", "method": "Nineteen patients (19 women) post-term were treated with L-Glu-L-Trp and 48 women received conventional post-term treatment as a control group."}, "[5]": {"experiment": "Lymphatic infections (lymphangitis)", "type": "in vivo", "conditions": "100 μg im, 1 μg/kg intranasally or intralymphatically"}, "[6]": {"experiment": "Complications of pregnancy (Protocol C)", "design": "species or system human", "conditions": "in vivo", "method": "L-Glu-L-Trp was administered to 34 pregnant women and 27 pregnant women receiving conventional treatment served as a control group. […] Signs of clinical improvement were resolution of weakness and dizziness, increased appetite, and the normalization of the immunological and hematological indices."}, "[7]": {"experiment": "Bone fractures", "design": "species or system human", "conditions": "in vivo", "method": "L-Glu-L-Trp was applied to 44 patients with bone fractures of various origin. The control group comprised 28 patients. L-Glu-L-Trp was administered intramuscularly or intranasally in a single dose of 100 μg daily for 10 days."}, "[8]": {"experiment": "Drug allergies to antibiotics", "design": "species or system human", "conditions": "in vivo", "method": "L-Glu-L-Trp was administered to 76 patients having clinical histones of allergies to antibiotics, during the period of administration of the antibiotic. A control group consisted of 43 patients with similar antibiotic drug allergies. L-Glu-L-Trp was administered im on a daily basis for 5-10 days at a dosage of 100 μg, or alternatively, intranasally at a dosage of 1 μg/kg over the same 5-10 day period. […] Allergic reactions were pronounced in the control group with signs of drug intolerance."}, "[9]": {"test_system": "E-receptors on thymocytes", "experiment": "Expression of E-receptors on trypsin-treated thymocytes (E-RFC)", "type": "cell-based, guinea pigs", "conditions": "for E-RFC (%): trypsin-treated thymocytes", "method": "Thymus cells were isolated from male guinea pigs (180-200 g) under standard conditions of tissue mincing and differential centrifugation in Medium 199. Isolated thymocytes were treated with trypsin to remove cell surface E-receptors capable of binding rabbit erythrocytes (E). The percentage of cells capable forming E-rosettes (E-RFC) was decreased by about two-fold under these conditions.\nL-Glu-L-Trp has been reported to restore T-cell receptors and E-RFC following incubation at 37° C. Studies were conducted in which the activity of L-Glu-L-Trp dipeptide were compared in the latter assay.\nThymocytes were prepared from 48 guinea pigs, treated with trypsin, and tested for E-RFC."}, "[10]": {"test_system": "human peripheral blood T-lymphocytes", "experiment": "OKT4+ and OKT8+ lymphocytes from patients with secondary immunodeficiency after in vitro incubation", "type": "cell-based", "conditions": "for OKT4^+/OKT8^+ ratio / mean percentage of T-helper (OKT4^+) lymphocytes / mean percentage of T-suppressor (OKT8^+) lymphocytes: 45 minutes at 37° C.", "source_text": "The effects of L-Glu-L-Trp on human peripheral blood T-lymphocytes was investigated using indirect immunofluorescence microscopy and OKT4 and OKT8 monoclonal antibodies (Ortho, USA) directed to lymphocyte cell surface differentiation antigens. For these studies lymphocytes were isolated from heparinized peripheral blood (25 units heparin/mL) isolated from 18 different donors with inflammatory lung diseases and chronic purulent bronchitis accompanied by a secondary immunodeficiency state. Lymphocytes were prepared by centrifugation on Ficoll-Hypaque, washed, and then incubated in vitro for 45 minutes at 37° C. in the presence (or absence) of L-Glu-L-Trp at concentrations of 1 mg/mL, 0.01 mg/mL, 0.0001 mg/mL. Following incubation the cells were washed with Medium 199 and the percentage of OKT4^+ (T-helper) and OKT8^+ (T-suppressor) lymphocytes determined by indirect immunofluorescent microscopy. The results presented in TABLE 51 show the mean percentages of OKT4^+ and OKT8^+ cells in this group of patients after incubation with Medium 199 (Control), or with L-Glu-L-Trp."}}, "note": "Marks after values point to notes of the source that are not given here."}
{"substance": "L-Glu-L-Trp", "values": [{"measurement": "Patients with disappearance of symptoms of food and drug allergies", "setting": "[1]; in vivo", "result": "more than half"}, {"measurement": "Decrease in the incidence of bronchial asthmatic attacks", "setting": "[1]; year long follow-up", "result": 4.2, "unit": "fold"}, {"measurement": "Percentage of E-rosette forming (CD2+) T-lymphocytes", "setting": "[2]", "result": "increase in the percentage of E-rosette forming (CD2^+) T-lymphocytes"}, {"measurement": "Numbers of lung bacteria, % of saline treated control", "setting": "[3]; 10 μg/kg", "result": "about 33%"}, {"measurement": "Lung (bacteria)", "setting": "[3]; 10 μg/kg im", "result": "53 ± 32 P. carinii bacteria per 10 sections"}, {"measurement": "Numbers of lung bacteria, % of saline treated control", "setting": "[3]; 100 μg/kg", "result": "~43", "unit": "%"}, {"measurement": "Lung (bacteria)", "setting": "[3]; 100 μg/kg im", "result": "70 ± 33 P. carinii bacteria per 10 sections"}, {"measurement": "Leukocyte counts, % of normal", "setting": "[3]; day 79", "result": "45-47%"}, {"measurement": "Lymphocyte counts, % of normal", "setting": "[3]; day 79", "result": 45, "unit": "%"}, {"measurement": "Lymphocytes", "setting": "[3]; 10 μg/kg im", "result": "4.7 ± 1.2 ×10^6/ml"}, {"measurement": "Neutrophils", "setting": "[3]; 10 μg/kg im", "result": "2.0 ± 0.7 ×10^6/ml"}, {"measurement": "Total Leukocytes", "setting": "[3]; 10 μg/kg im", "result": "8.1 ± 2.3 ×10^6/ml"}, {"measurement": "Lymphocytes (% Normal)", "setting": "[3]; 10 μg/kg im", "result": 45, "unit": "%"}, {"measurement": "Neutrophils (% normal)", "setting": "[3]; 10 μg/kg im", "result": 41, "unit": "%"}, {"measurement": "Total Leukocytes (% normal)", "setting": "[3]; 10 μg/kg im", "result": 47, "unit": "%"}, {"measurement": "Lymphocytes", "setting": "[3]; 100 μg/kg im", "result": "4.7 ± 1.4 ×10^6/ml"}, {"measurement": "Neutrophils", "setting": "[3]; 100 μg/kg im", "result": "1.5 ± 0.5 ×10^6/ml"}, {"measurement": "Total Leukocytes", "setting": "[3]; 100 μg/kg im", "result": "7.8 ± 1.8 ×10^6/ml"}, {"measurement": "Lymphocytes (% Normal)", "setting": "[3]; 100 μg/kg im", "result": 45, "unit": "%"}, {"measurement": "Neutrophils (% normal)", "setting": "[3]; 100 μg/kg im", "result": 31, "unit": "%"}, {"measurement": "Total Leukocytes (% normal)", "setting": "[3]; 100 μg/kg im", "result": 45, "unit": "%"}, {"measurement": "Clinical outcome", "setting": "[4]", "result": "resulting in a normal delivery"}, {"measurement": "Clinical outcome", "setting": "[5]", "result": "controls the progression of lymphangitis"}, {"measurement": "Clinical outcome", "setting": "[6]", "result": "Decreased fetal hypoxia"}, {"measurement": "Clinical outcome", "setting": "[7]", "result": "prevented the development of infectious complications, reduced pain syndrome and treatment duration"}, {"measurement": "Patients in whom development of allergic reactions was prevented", "setting": "[8]", "result": 70, "unit": "%"}, {"measurement": "Percentage of E-RFC", "setting": "[9]; 0.01-1 mg/mL", "result": "increased the percentage of E-RFC in trypsin-treated thymocyte cultures"}, {"measurement": "E-RFC (%)", "setting": "[9]; Conc. 0.0001 mg/ml", "result": "30.3 ± 3.1", "unit": "%"}, {"measurement": "E-RFC (%)", "setting": "[9]; Conc. 0.01 mg/ml", "result": "36.8 ± 2.4", "unit": "%"}, {"measurement": "E-RFC (%)", "setting": "[9]; Conc. 1 mg/ml", "result": "42.8 ± 3.5", "unit": "%"}, {"measurement": "Percentage of detectable OKT8+ T-suppressor cells", "setting": "[10]", "result": "did not alter the percentage of detectable OKT 8^+ T-suppressor cells"}, {"measurement": "Percentage of detectable T-helpers (OKT4+)", "setting": "[10]; 1 and 0.01 mg/mL", "result": "increased the percentage of detectable T-helpers"}, {"measurement": "OKT4^+/OKT8^+ ratio", "setting": "[10]; Dose 0.0001 mg/ml", "result": 1.1}, {"measurement": "mean percentage of T-helper (OKT4^+) lymphocytes", "setting": "[10]; Dose 0.0001 mg/ml", "result": "25.4 ± 2.3"}, {"measurement": "mean percentage of T-suppressor (OKT8^+) lymphocytes", "setting": "[10]; Dose 0.0001 mg/ml", "result": "23.1 ± 2.1"}, {"measurement": "OKT4^+/OKT8^+ ratio", "setting": "[10]; Dose 0.01 mg/ml", "result": "1.8*"}, {"measurement": "mean percentage of T-helper (OKT4^+) lymphocytes", "setting": "[10]; Dose 0.01 mg/ml", "result": "39.8 ± 2.4"}, {"measurement": "mean percentage of T-suppressor (OKT8^+) lymphocytes", "setting": "[10]; Dose 0.01 mg/ml", "result": "22.7 ± 1.8"}, {"measurement": "OKT4^+/OKT8^+ ratio", "setting": "[10]; Dose 1 mg/ml", "result": "1.9*"}, {"measurement": "mean percentage of T-helper (OKT4^+) lymphocytes", "setting": "[10]; Dose 1 mg/ml", "result": "39.7 ± 2.7"}, {"measurement": "mean percentage of T-suppressor (OKT8^+) lymphocytes", "setting": "[10]; Dose 1 mg/ml", "result": "21.4 ± 1.3"}]}
